Assay results as given in patent publication US11318140B2, “Use of TRPV4 antagonists to ameliorate hydrocephalus and related materials and methods” (Indiana University Research and Technology Corporation, priority 2012, dated 2022).
“Also recorded” adds a separate entry of the source.

How the values were obtained:
Assay type in all cases: in vivo, rat
Wistar Wpk/Wpk rats [1] = experiment: Hydrocephalic cranial/head enlargement in Wpk/Wpk rats; settings: day 8 through 17
Protocol: (§1) Wistar Wpk/Wpk rats are an orthologous model of human type 3 Meckel Syndrome. Meckel Syndrome is a cilliopathology with both renal cystic and brain pathology. The brain pathology is severe hydrocephalus with hypoplasia of the corpus callosum.
(§2) The inventors treated Wpk/Wpk affected as well as noncystic littermates with either TRPV4 agonist (GSK1016797, 0.003 mg/kg body weight) or antagonist (HC067047, 0.03 mg/kg) from day 8 through 17 and evaluated the cranial enlargement and cerebral manifestations. Both drugs were dissolved in DMSO prior to dilution with normal saline prior to injection (i.p.).
(§3) Wpk/Wpk affected as well as noncystic littermates were treated with TRPV4 antagonist RN-1734 from day 8 through 17 and evaluated the kidney weight and cerebral manifestations (bitemporal head diameter and vertical head dimensions/cranial height). Both drugs were dissolved in DMSO prior to dilution with normal saline prior to injection (i.p.).

Wistar Wpk/Wpk rats [2] = experiment: Renal pathology (kidney weight) in Wpk/Wpk rats; settings: day 8 through 17
Protocol: as §1, §2, §3

[3] = test system: Wpk/Wpk hydrocephalic rats; experiment: Cortical thickness from coronal sections of Wpk/Wpk hydrocephalic rats; settings: 0.03 mg/kg body weight, day 8-17; measured at day 17; p<0.0001
Description: as §1
Cortical thickness measured from coronal sections of Wpk/Wpk hydrocephalic rats at day 17. […] This finding is in agreement with the decreased degree of hydrocephalus in the antagonist treated animals and, therefore, have a decreased loss in cerebral cortex.

[4] = Example 3: i.p., dose not given

Cc1c(C(=O)Nc2cccc(C(F)(F)F)c2)cc(-c2ccccc2)n1CCCN1CCOCC1 [HC067047]
activity and alertness of treated rats (Wistar Wpk/Wpk rats [1]; 0.03 mg/kg i.p.): very active and alert like their nonaffected littermates | head dimensions, treated affected rats versus normal littermates (Wistar Wpk/Wpk rats [1]; 0.03 mg/kg i.p.): no difference in head dimensions | hydrocephalic enlargement of the cranium/brain (head measurements) (Wistar Wpk/Wpk rats [1]; 0.03 mg/kg i.p., affected Wpk/Wpk rats): almost totally ameliorate; also recorded: significantly less hydrocephalic head measurements | renal pathology (Wistar Wpk/Wpk rats [2]; Example 2: agonist 0.003 mg/kg, antagonist 0.03 mg/kg, i.p.): did not affect the renal pathology | cortical thickness [3]: increased cortical thickness

CC(C)NCCN(C(C)C)S(=O)(=O)c1ccc(Cl)cc1Cl [RN-1734]
activity and alertness of treated rats (Wistar Wpk/Wpk rats [1]; [4]): very active and alert like their nonaffected littermates | head dimensions, treated affected rats versus normal littermates (Wistar Wpk/Wpk rats [1]; [4]): no difference in head dimensions | hydrocephalic enlargement of the cranium/brain (bitemporal head diameter, vertical head dimension) (Wistar Wpk/Wpk rats [1]; [4]): almost totally ameliorate | renal pathology (kidney weight) (Wistar Wpk/Wpk rats [2]; [4]): did not affect the renal pathology
